Entries after “also recorded” stand apart in the source; their conditions may differ. Like-named read-outs stand apart in the source and are kept apart here.
Legend:
[1] = molecular target: HIV-1 RT-associated RDDP (Human immunodeficiency virus type 1 group M subtype B, UniProt P03366); assay: biochemical; type: biochemical
[2] = test system: HIV-2 (ROD strain); assay: Anti-HIV-2 activity in acutely infected MT-4 cells (MTT); type: cell-based
[3] = molecular target: HIV-1 RT-associated RNase H (Human immunodeficiency virus type 1 group M subtype B, UniProt P03366); assay: biochemical; type: biochemical
[4] = test system: HIV-1 (IIIB strain); type: cell-based; details: acutely infected MT-4 cells
[5] = test system: HIV-1 RDDP; set-up: method as in ref 17-21, 27-29 (per compound as in Figure 1 legend); details: known allosteric RNHIs; 27-29 (per compound as in Figure 1 legend); cited from earlier work
[6] = molecular target: HIV-1 RNase H; set-up: method as in ref 17-25, 27-29 (per compound as in Figure 1 legend); details: known allosteric RNHIs; 27-29 (per compound as in Figure 1 legend); cited from earlier work
[7] = test system: HIV-1 replication; details: 28 (per compound as in Figure 1 legend); cited from earlier work
[8] = wt RT, average and standard deviation of three independent experiments in duplicate

Compound	IC50 [1] [µM]	IC50 [3] [µM]	melting point [°C]	also measured
CCCCc1ccc(C(=O)Nc2nc3n(n2)C(c2ccccc2)C=C(C)N3)cc1 (centres unmarked) [Compound 11b]	> 100	13.1 ± 2.2		anti-HIV-2 (ROD strain) activity [2]: none of the compounds having RNase H inhibition showed anti-HIV activity at concentrations lower than those cytotoxic; anti-HIV-1 (IIIB strain) activity [4]: none of the compounds having RNase H inhibition showed anti-HIV activity at concentrations lower than those cytotoxic
Cc1cc(C)n2nc(NC(=O)c3ccc(N)cc3)nc2n1 [Compound 14e, 4-Amino-N-(5,7-dimethyl-[1,2,4]triazolo[1,5-a]pyrimidin-2-yl)benzamide]	> 100	> 100	248 to 258	
Cc1cc(-c2ccccc2)nc2nc(NC(=O)c3ccc([N+](=O)[O-])cc3)nn12 [Compound 13d, N-(7-Methyl-5-phenyl-[1,2,4]triazolo[1,5-a]pyrimidin-2-yl)-4-nitrobenzamide]	> 100	60.1 ± 3.3	316 to 318	
CCOC(=O)C(=O)CC(=O)C=Cc1cccn1Cc1ccc(F)cc1 [RDS1643, reference compound]				IC50 ([3]; wt RT, average and standard deviation of three independent experiments in duplicate, read-out: HIV-1 RNaseH IC50): 9 ± 2 µM
O=c1oc(-c2ccc(O)c(O)c2)nc2sc3ccccc3c12 [Compound 9]				IC50 [5]: 2.9 µM; IC50 [6]: 0.53 µM; EC50 (HIV-1 replication) [7]: not active
Cc1cc(-c2ccccc2)n2nc(NC(=O)c3ccccc3F)nc2n1 [Compound 12c, 2-Fluoro-N-(5-methyl-7-phenyl[1,2,4]triazolo[1,5-a]pyrimidin-2-yl)benzamide]	> 100	> 100	292 to 302	
Cc1cc(-c2ccccc2)nc2nc(NC(=O)c3ccc(O)c(O)c3)nn12 [Compound 13g, 3,4-Dihydroxy-N-(7-methyl-5-phenyl-[1,2,4]triazolo[1,5-a]pyrimidin-2-yl)benzamide]	> 100	3.5 ± 1.5	298 to 312	anti-HIV-2 (ROD strain) activity [2]: none of the compounds having RNase H inhibition showed anti-HIV activity at concentrations lower than those cytotoxic; anti-HIV-1 (IIIB strain) activity [4]: none of the compounds having RNase H inhibition showed anti-HIV activity at concentrations lower than those cytotoxic
COc1ccc(-c2cc(C)nc3nc(N(C(=O)c4ccccc4)C(=O)c4ccccc4)nn23)cc1OC [Compound 16hh, N-benzoyl-N-(7-(3,4-dimethoxyphenyl)-5-methyl-[1,2,4]triazolo[1,5-a]pyrimidin-2-yl)benzamide]	> 100	6.74 ± 0.55		HIV-1 RNaseH IC50 [3, 8]: low micromolar range
Cc1cc(C)n2nc(NC(=O)c3ccccc3F)nc2n1 [Compound 14c, N-(5,7-Dimethyl-[1,2,4]triazolo[1,5-a]pyrimidin-2-yl)-2-fluorobenzamide]	> 100	> 100	195 to 200	
Cc1cc(C)n2nc(NC(=O)c3ccc([N+](=O)[O-])cc3)nc2n1 [Compound 14d, N-(5,7-Dimethyl-[1,2,4]triazolo[1,5-a]pyrimidin-2-yl)-4-nitrobenzamide]	> 100	> 100	273 to 276	
Cc1cc(-c2ccccc2)nc2nc(NC(=O)c3ccccc3F)nn12 [Compound 13c, 2-Fluoro-N-(7-methyl-5-phenyl-[1,2,4]triazolo[1,5-a]pyrimidin-2-yl)benzamide]	> 100	> 100	165 to 169	
Cc1cc(-c2ccccc2)nc2nc(NC(=O)c3ccc(N)cc3)nn12 [Compound 13e, 4-Amino-N-(7-methyl-5-phenyl-[1,2,4]triazolo[1,5-a]pyrimidin-2-yl)benzamide]	> 100	> 100	318 to 319	
O=C(Nc1nc2nc(-c3ccccc3)cc(-c3ccccc3)n2n1)c1ccc(O)c(O)c1 [Compound 15g, N-(5,7-diphenyl-[1,2,4]triazolo[1,5-a]pyrimidin-2-yl)-3,4-dihydroxybenzamide]	20.5 ± 4.1	1.86 ± 0.54	258 to 260	fold weaker potency against RDDP than against RNase H ([1]; RDDP IC50 vs RNase H IC50): 10 fold; anti-HIV-2 (ROD strain) activity [2]: none of the compounds having RNase H inhibition showed anti-HIV activity at concentrations lower than those cytotoxic; anti-HIV-1 (IIIB strain) activity [4]: none of the compounds having RNase H inhibition showed anti-HIV activity at concentrations lower than those cytotoxic
N#Cc1ccc(-c2csc(N/N=C3/C(=O)Nc4ccccc43)n2)cc1 [Compound 4]				IC50 [5]: 9.8 µM; IC50 [6]: 1.3 µM
CCCCOc1ccc(C(=O)Nc2nc3n(n2)C(c2ccccc2)C=C(C)N3)cc1 (centres unmarked) [Compound 11a]	> 100	17.7 ± 2.7		
CCCCc1ccc(C(=O)Nc2nc3nc(C)cc(-c4ccccc4)n3n2)cc1 [Compound 12b, 4-Butyl-N-(5-methyl-7-phenyl-[1,2,4]triazolo[1,5-a]pyrimidin-2-yl)benzamide]	> 100	12.3 ± 1.5	157 to 158	

Compound	IC50 [1] [µM]	IC50 [3] [µM]	melting point [°C]	also measured
Cc1sc2nc(-c3ccc([N+](=O)[O-])cc3)[nH]c(=O)c2c1C [Compound 6]				IC50 [6]: 0.85 µM
COc1ccc(C(=O)Nc2nc3nc(C)cc(-c4ccccc4)n3n2)cc1OC [Compound 12f, 3,4-Dimethoxy-N-(5-methyl-7-phenyl-[1,2,4]triazolo[1,5-a]pyrimidin-2-yl)benzamide]	> 100	> 100	131 to 151	
Cc1cc(-c2ccccc2)n2nc(C(=O)Nc3ccc(O)c(O)c3)nc2n1 [Compound 18g, N-(3,4-Dihydroxyphenyl)-5-methyl-7-phenyl-[1,2,4]triazolo[1,5-a]pyrimidine-2-carboxamide]	> 100	0.41 ± 0.005	278 to 281	anti-HIV-2 (ROD strain) activity [2]: none of the compounds having RNase H inhibition showed anti-HIV activity at concentrations lower than those cytotoxic; anti-HIV-1 (IIIB strain) activity [4]: did not result in anti-HIV-1 activity in cellular context; also recorded: none of the compounds having RNase H inhibition showed anti-HIV activity at concentrations lower than those cytotoxic
CCCCc1ccc(C(=O)Nc2nc3nc(C)cc(C)n3n2)cc1 [Compound 14b, 4-Butyl-N-(5,7-dimethyl-[1,2,4]triazolo[1,5-a]pyrimidin-2-yl)benzamide]		> 100	175 to 177	HIV-1 RNaseH IC50 [3, 8]: complete loss of activity
Cc1cc(-c2ccccc2)n2nc(NC(=O)c3ccc(N)cc3)nc2n1 [Compound 12e, 4-Amino-N-(5-methyl-7-phenyl-[1,2,4]triazolo[1,5-a]pyrimidin-2-yl)benzamide]	> 100	> 100	179 to 202	
O=C1Nc2ccccc2/C1=N\Nc1nc(-c2ccc(O)c(O)c2)cs1 [Compound 3]				IC50 [5]: 1.4 µM; IC50 [6]: 2 µM; EC50 (HIV-1 replication) [7]: not active
COc1ccc(C(=O)Nc2nc3nc(-c4ccccc4)cc(C)n3n2)cc1OC [Compound 13f, 3,4-Dimethoxy-N-(7-methyl-5-phenyl-[1,2,4]triazolo[1,5-a]pyrimidin-2-yl)benzamide]	> 100	> 100	175 to 179	
O=C(Nc1sc2c(c1C(=O)Nc1ccccn1)CCCCC2)c1ccc(O)c(O)c1 [Compound 8]				IC50 [5]: 20.9 µM; IC50 [6]: 0.84 µM; EC50 (HIV-1 replication) [7]: not active
Cc1cc(-c2ccccc2)n2nc(NC(=O)c3ccc([N+](=O)[O-])cc3)nc2n1 [Compound 12d, N-(5-Methyl-7-phenyl-[1,2,4]triazolo[1,5-a]pyrimidin-2-yl)-4-nitrobenzamide]	> 100	> 100	290 to 293	
Cc1cc(C)n2nc(NC(=O)c3ccc(O)c(O)c3)nc2n1 [Compound 14g, N-(5,7-Dimethyl-[1,2,4]triazolo[1,5-a]pyrimidin-2-yl)-3,4-dihydroxybenzamide]	> 100	6.23 ± 0.01	299 to 301	
CCCCCCCC/C=C\CCCCCCCCNC(=O)/C=C/c1ccc(O)c(O)c1 [Compound 10]				IC50 [5]: 2.3 µM; IC50 [6]: 0.68 µM
O=C(O)c1ccc(-c2cccc(/C=N/NC(=O)c3ccc(O)c(O)c3)c2)cc1 [Compound 2]				IC50 [5]: > 50 µM; IC50 [6]: 0.4 µM
Cc1cc(-c2ccc(O)c(O)c2)n2nc(NC(=O)c3ccccc3)nc2n1 [Compound 17h, N-(7-(3,4-dihydroxyphenyl)-5-methyl-[1,2,4]triazolo[1,5-a]pyrimidin-2-yl)benzamide]	> 100	1.13 ± 0.33	260 to 263	anti-HIV-2 (ROD strain) activity [2]: none of the compounds having RNase H inhibition showed anti-HIV activity at concentrations lower than those cytotoxic; anti-HIV-1 (IIIB strain) activity [4]: none of the compounds having RNase H inhibition showed anti-HIV activity at concentrations lower than those cytotoxic
COc1ccc(C(=O)Nc2nc3nc(C)cc(C)n3n2)cc1OC [Compound 14f, N-(5,7-Dimethyl-[1,2,4]triazolo[1,5-a]pyrimidin-2-yl)-3,4-dimethoxybenzamide]	> 100	> 100	190 to 194	
Cc1cc(-c2ccccc2)nc2nc(C(=O)Nc3ccc(O)c(O)c3)nn12 [Compound 19g, N-(3,4-Dihydroxyphenyl)-7-methyl-5-phenyl-[1,2,4]triazolo[1,5-a]pyrimidine-2-carboxamide]		43.1 ± 2.1	247 to 250	HIV-1 RNaseH IC50 [3, 8]: markedly decreased anti-RNase H activity
